From PMC7169394, “Binding Constants of Substituted Benzoic Acids with Bovine Serum Albumin” (Pharmaceuticals, 2020)
Read-outs that look alike come from different tables or passages of the source.

How the values were obtained:
BSA [1] = test system: BSA; parameters: method as in PMID 27098963; conditions: ED, 310 K; cited from earlier work
[2] = molecular target: bovine serum albumin (BSA) (Bos taurus, UniProt P02769); assay: biochemical; format: binding
BSA [3] = conditions: SF, 298 K; cited from earlier work
[4] = test system: human serum albumin (HSA); conditions: SF, 298 K; cited from earlier work
BSA [5] = conditions: UC, cited from earlier work
[6] = test system: human serum albumin (HSA); parameters: method as in PMID 3664856; conditions: UC, 288 K; cited from earlier work
BSA [7] = test system: BSA; parameters: method as in PMID 5677620; conditions: SP, 310 K; cited from earlier work
BSA [8] = conditions: CE, 298 K; cited from earlier work
[9] = 298 K, phosphate buffer pH 7.4, 0.05 M, BSA about 1 µM, 1:1 model, standard state 1 M, […], read-out: K∙10^−4 (binding constant with BSA, final corrected value) (converted)
[10] = 298 K, phosphate buffer pH 7.4, 0.05 M, BSA about 1 µM, 1:1 model, standard state 1 M, value is K multiplied by 10^−4, read-out: K∙10^−4 (binding constant with BSA, final corrected value) (converted)

bovine serum albumin (BSA), sequence (P02769 25-607): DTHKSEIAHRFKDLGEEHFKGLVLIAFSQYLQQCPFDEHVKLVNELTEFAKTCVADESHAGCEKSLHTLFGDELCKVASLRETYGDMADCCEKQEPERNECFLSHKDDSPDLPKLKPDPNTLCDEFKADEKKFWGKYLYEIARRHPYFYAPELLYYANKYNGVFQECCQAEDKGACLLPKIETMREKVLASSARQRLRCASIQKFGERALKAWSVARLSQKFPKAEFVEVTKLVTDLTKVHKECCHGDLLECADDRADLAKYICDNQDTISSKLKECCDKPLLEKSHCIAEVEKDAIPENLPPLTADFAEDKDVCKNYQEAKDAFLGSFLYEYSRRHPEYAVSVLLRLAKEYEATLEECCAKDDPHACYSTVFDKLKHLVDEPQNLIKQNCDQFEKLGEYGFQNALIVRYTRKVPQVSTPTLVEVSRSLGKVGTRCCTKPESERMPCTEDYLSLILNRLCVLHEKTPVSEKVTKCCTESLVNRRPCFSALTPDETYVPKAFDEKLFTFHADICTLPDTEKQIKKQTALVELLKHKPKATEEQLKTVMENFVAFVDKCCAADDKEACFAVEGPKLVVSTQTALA

In the case of O=C(O)c1cccc(Cl)c1 [3-chlorobenzoic acid], the “K·10^−4 BSA” value (BSA [1]) is given as 11.22 (ED, 310 K) [24] and the Kd [2] is given as 17.2 µM.
In the case of O=C(O)c1ccc(O)cc1O [2,4-dihydroxybenzoic acid], the “K·10^−4 BSA” value (BSA [3]) is listed as <0.1 (SF) [11], the “K·10^−4 HSA” value [4] is listed as 0.16 (SF) [10] and the Kd [2] is listed as 32.3 µM.
For O=C(O)c1ccc([N+](=O)[O-])cc1 [4-nitrobenzoic acid], the “K·10^−4 BSA” value (BSA [1]) is given as 3.09, the “K·10^−4 BSA” value (BSA [5]; 288 K) is given as 6.03 and the Kd [2] is given as 12.3 µM. The “K·10^−4 HSA” value [6] was 8.13 (UC, 288 K) [8].
In the case of Nc1ccccc1C(=O)O [2-aminobenzoic acid], the “K·10^−4 BSA” value (BSA [7]) is given as 0.63 (SP, 310 K) [9] and the Kd [2, 9] is given as 43.5 µM.
For Cc1ccc(C(=O)O)cc1 [4-methylbenzoic acid], the “K·10^−4 BSA” value (BSA [1]) is given as 3.16, the “K·10^−4 BSA” value (BSA [3]) is given as < 0.1 and the “K·10^−4 BSA” value (BSA [5]; 288 K) is given as 6.76. The “K·10^−4 HSA” value [4] was 0.35, the “K·10^−4 BSA” value (BSA [7]) was 7.94 and the Kd [2] was 71.4 µM. The “K·10^−4 HSA” value [6] was 3.63.
In the case of O=C(O)c1ccccc1 [benzoic acid], the “K·10^−4 BSA” value (BSA [1]) is listed as 1.15, the “K·10^−4 BSA” value (BSA [5]; 288 K) is listed as 2.24 and the “K·10^−4 BSA” value (BSA [7]) is listed as 5.01. For the same compound, the Kd [2] was 52.6 µM and the “K·10^−4 HSA” value [6] was 2.29 (UC, 288 K) [8].
For O=C(O)c1cccc(O)c1 [3-hydroxybenzoic acid], the “K·10^−4 BSA” value (BSA [3]) is listed as 0.85, the “K·10^−4 HSA” value [4] is listed as 0.34 (SF) [10] and the “K·10^−4 BSA” value (BSA [7]) is listed as 5.01. The Kd [2] was 52.6 µM.
For O=C(O)c1ccc(O)cc1 [4-hydroxybenzoic acid], the “K·10^−4 BSA” value (BSA [3]) is listed as < 0.1, the “K·10^−4 BSA” value (BSA [5]; 288 K) is listed as 0.68 and the “K·10^−4 HSA” value [4] is listed as < 0.1. The “K·10^−4 BSA” value (BSA [7]) was 0.79, the Kd [2] was 100 ± 10 µM and the “K·10^−4 HSA” value [6] was 0.45.
For N#Cc1ccc(C(=O)O)cc1 [4-cyanobenzoic acid], the “K·10^−4 BSA” value (BSA [5]; 288 K) is listed as 1.66 (UC, 288 K) [8].
Compound O=C(O)c1ccccc1F [2-fluorobenzoic acid] has a Kd [2, 9] of 30.3 µM.
For O=C(O)c1cccc(Br)c1 [3-bromobenzoic acid], the “K·10^−4 BSA” value (BSA [5]; 310 K) is listed as 63.1 (UC, 310 K) [9] and the Kd [2, 10] is listed as 28.6 µM.
In the case of O=C(O)c1ccc(Br)cc1 [4-bromobenzoic acid], the “K·10^−4 BSA” value (BSA [1]) is given as 20.42, the “K·10^−4 BSA” value (BSA [5]; 310 K) is given as 20.0 and the Kd [2, 10] is given as 18.5 µM.
N#Cc1cccc(C(=O)O)c1 [3-cyanobenzoic acid] showed a Kd [2] of 25.6 µM.
O=C(O)c1ccc(I)cc1 [4-iodobenzoic acid] gave a Kd [2, 10] of 24.4 µM.
With O=C(O)c1ccccc1I [2-iodobenzoic acid] the Kd [2, 10] was 30.3 µM.
For O=C(O)c1ccccc1O [2-hydroxybenzoic acid], the “K·10^−4 BSA” value (BSA [3]) is listed as 7.38, the “K·10^−4 HSA” value [4] is listed as 190 and the “K·10^−4 BSA” value (BSA [7]) is listed as 10.0. For the same compound, the “K·10^−4 BSA” value (BSA [8]) was 3.92.
In the case of O=C(O)c1cccc(I)c1 [3-iodobenzoic acid], the Kd [2, 10] is reported as 19.6 µM.
Compound O=C(O)c1cccc([N+](=O)[O-])c1 [3-nitrobenzoic acid] has a Kd [2, 9] of 12.8 µM.
In the case of Nc1cccc(C(=O)O)c1 [3-aminobenzoic acid], the “K·10^−4 BSA” value (BSA [7]) is given as 0.32 (SP, 310 K) [9] and the Kd [2] is given as 71.4 µM.
For O=C(O)c1ccccc1Br [2-bromobenzoic acid], the “K·10^−4 BSA” value (BSA [5]; 310 K) is given as 3.98 (UC, 310 K) [9] and the Kd [2] is given as 43.5 µM.
Compound O=C(O)c1ccccc1[N+](=O)[O-] [2-nitrobenzoic acid] has a Kd [2] of 47.6 µM.
Work on N#Cc1ccccc1C(=O)O [2-cyanobenzoic acid] yielded a Kd [2] of 38.5 µM.
